Data published in patent US20090023700A1, “NEUROPROTECTIVE TREATMENTS” (University of Louisville Research Foundation, priority 2007, published 2009).
Values joined by “and” are separate entries in the source; they are usually repeats but may differ in a detail not shown here. Equal values may be shown once.

Columns and labels:
[1] = system: T9 contusive spinal cord injury; test: T9 spinal cord contusion, intrathecal infusion: CTB tracing, white matter (EC) and C3 axon histology; format: in vivo, rat; details: for CTB-traced fiber area in the gracile nucleus: PBS 43+/−17
[2] = system: T9 contusive spinal cord injury; test: Semmes-Weinstein filament test for at-level pain (allodynia); format: in vivo, rat; details: 100 μM, 28 d L5/6 infusion
Experimental: Whether bpV(phen) might have detrimental side effects, such as inducing pain at the level of the injury, was tested. Severe spinal cord injury can induce hypersensitivity and mechanical allodynia (a painful response to a nonpainful tactile skin stimulus) at the level of injury. […] Differences between any of the bpV(phen)- and PBS-treated groups in the overall health status, general behavior, and grooming of the rats were not observed.

[3] = system: T9 contusive spinal cord injury; test: Sensory-evoked potentials (SEP) after 0.4 mm T9 contusion; format: in vivo, rat; details: 0.4 mm contusion
[4] = system: human aortic endothelial cells; test: Apoptosis of serum-deprived cultured endothelial cells; format: cell-based; details: for apoptotic endothelial cells: 3 μM
Experimental: To determine whether bpV(phen) can directly promote survival of endothelial cells, it was tested on cultured human aortic endothelial cells deprived of serum. […] With 3 μM bpV(phen), only ˜1.3% were apoptotic in both the 0 and 5% serum groups (FIG. 9A). Eighteen hours after plating under control conditions, between 5 and 13% of endothelial cells were apoptotic, whereas treatment with 3 μM bpV(phen) reduced apoptosis to ˜2-3% (FIG. 9B).
Endothelial cell cultures. Human aortic endothelial cells (Lonza Walkersville) were plated at 5×10^4 cells per well in 24 well polystyrene plates and incubated with different concentrations of bpV(phen) for 6 or 18 h at 37° C. in DMEM/Ham's F-12 (BioWhittaker) plus EGM-2 growth factor supplements [EGM-2 SingleQuots (Lonza Walkersville) containing hydrocortisone, human epidermal growth factor, FBS, vascular endothelial growth factor, human basic fibroblast growth factor, R3-IGF-1, ascorbic acid, heparin, and gentamicin/amphotericin-B] and 10-20% fetal calf serum. […] Afterward, the endothelial cells were fixed in 4% paraformaldehyde for 2 h, the nuclei were stained with 2.5 μg/ml DNA dye Hoechst 33258 (bis-benzimide; Sigma) in PBS containing 0.1% Triton X-100 for 30 min, and the cells were covered with Fluoromount-G (Southern Biotechnology) to reduce fluorescence-induced fading (Invitrogen).
Quantitative measurements and statistics. The extent of sensory innervation of the gracile nucleus was determined by measuring the CTB-labeled terminal fiber area in every third section as described previously (Baker et al. (2007) Exp Neurol 205:82-91). In short, images of every third section through the right and left gracile nuclei were analyzed using the density slice feature of the Scion Image software. […] Images of EC-stained sections were captured, and the positive areas were measured with Scion Image. […] The number of spared myelinated axons at C3 was counted in semithin sections using a 63× oil objective in 15.7×15.7 μm grids placed over the middle part of each fasciculus gracilis (see FIG. 4D-4F). […]

cdc25B PTP [5] = details: yeast enzyme; cited from earlier work
cdc25B PTP [6] = biological target: T1, cdc25B PTP (Mus musculus, UniProt P30306); details: mouse enzyme; cited from earlier work
T1 sequence (P30306 1-576): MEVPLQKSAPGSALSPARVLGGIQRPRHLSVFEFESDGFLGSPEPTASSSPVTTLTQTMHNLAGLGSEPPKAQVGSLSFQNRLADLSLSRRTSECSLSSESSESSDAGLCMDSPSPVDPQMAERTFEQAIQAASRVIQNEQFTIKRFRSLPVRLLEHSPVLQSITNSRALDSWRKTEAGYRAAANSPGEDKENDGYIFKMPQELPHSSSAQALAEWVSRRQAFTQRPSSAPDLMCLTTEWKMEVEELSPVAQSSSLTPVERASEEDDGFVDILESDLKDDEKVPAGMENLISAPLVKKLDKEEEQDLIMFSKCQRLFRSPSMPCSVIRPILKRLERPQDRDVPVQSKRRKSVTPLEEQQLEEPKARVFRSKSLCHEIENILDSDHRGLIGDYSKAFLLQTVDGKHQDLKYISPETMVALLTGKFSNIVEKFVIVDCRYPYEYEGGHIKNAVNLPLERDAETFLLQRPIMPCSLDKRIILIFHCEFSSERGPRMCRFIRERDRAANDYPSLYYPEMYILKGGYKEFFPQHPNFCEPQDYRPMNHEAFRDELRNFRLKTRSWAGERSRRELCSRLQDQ

C6 cells = details: cited from earlier work
rat cardiomyocytes = details: cited from earlier work
[7] = system: Madin-Darby canine kidney cells; details: H2O2-susceptible Madin-Darby canine kidney cells; cited from earlier work
Ser/Thr phosphatases = details: cited from earlier work
[8] = 100 μM, 7 d L5/6 infusion started immediately after 0.3 mm contusion

With `O.O.O.OO.OO.[K+].[OH-].[V].c1cnc2c(c1)ccc1cccnc12` [bpV(phen), potassium bisperoxo(1,10-phenanthroline)oxovanadate (V)] the “CTB-traced fiber area in the gracile nucleus” value (from here on “CTB-traced fiber area”) ([1]; 30 μM, 7 d L5/6 infusion started immediately after 0.3 mm contusion) was 60+/−5%, the “CTB-labeled terminal fiber area in the gracile nucleus” value ([1]; 30 μM, 7 d intrathecal infusion at T9 started immediately after 0.3 mm contusion, PBS 17+/−7%) was 47+/−6 % of sham and the “area of spared white matter in the dorsal column at injury epicenter” value ([1]; 30 μM, 7 d intrathecal infusion at T9 started immediately after 0.3 mm contusion, PBS 28+/−6%) was 50+/−8 % of sham. For the same compound, the “spared dorsal column white matter at the epicenter” value ([1]; 100 μM, 7 d L5/6 infusion started 4 h after 0.3 mm contusion, PBS 37+/−6%) was 78+/−7%, the “gracile nucleus innervation (CTB)” value ([1]; 100 μM, 7 d L5/6 infusion started 4 h after 0.3 mm contusion, PBS 66+/−11%) was 100+/−7% and the total white matter ([1]; 100 μM, 7 d L5/6 infusion started 4 h after 0.3 mm contusion, PBS 70+/−5%) was 103+/−4%. The “area of spared dorsal column white matter at the injury epicenter” value [1, 8] was 58+/−12%, the “CTB-traced fiber area” value [1, 8] was 93+/−11% and the “total white matter at the epicenter” value ([1]; 100 μM, 7 d L5/6 infusion started immediately after 0.3 mm contusion, PBS 68+/−6%) was 90+/−12%. The “CTB-labeled innervation of the gracile nucleus” value ([1]; 100 μM, 28 d L5/6 infusion started 4 h after contusion, 42 d after injury, 14 d after end of infusion, PBS 68+/−11%) was 106+/−9 % of sham, the “area of spared white matter in the dorsal column at the T9 injury epicenter” value ([1]; 100 μM, 28 d L5/6 infusion started 4 h after contusion, 42 d after injury, PBS 48+/−8%) was 79+/−7% and 80% and the “number of myelinated axons in fasciculus gracilis at C3” value ([1]; 100 μM, 28 d L5/6 infusion started 4 h after contusion, 42 d after injury, PBS 63+/−6%) was 102+/−5%. For the same compound, the “CTB-traced fiber area” value ([1]; 300 μM, 7 d L5/6 infusion started immediately after 0.3 mm contusion) was 80+/−14%, the “induction of pain by chronic infusion” value [2] was “do not induce pain” and the “Semmes-Weinstein filament size evoking a response (pain at level of injury)” value ([2]; entire test period) was “not different from those of the PBS group”. For the same compound, the “SEP amplitude, group average” value ([3]; 100 μM 7 d lumbar infusion started immediately, one week after contusion, PBS 6+/−6, sham 16) was 21+/−7 μV, the “rats with an SEP above background noise” value ([3]; 100 μM 7 d lumbar infusion, one week after contusion, PBS one of five) was “four of five” and the “SEP amplitude, group average” value ([3]; 100 μM 7 d lumbar infusion, one week after termination of infusion, PBS 2+/−2, sham 36) was 30+/−18 μV. The “rats with a detectable SEP” value ([3]; 100 μM 7 d lumbar infusion, one week after termination of infusion, PBS one rat) was “all rats”, the endothelial apoptosis ([4]; 1 μM, 18 h, 0, 1.25, 2.5 and 5% serum) was “only reduces endothelial apoptosis in the 2.5 and 5% serum groups” and the apoptotic endothelial cells ([4]; 6 h after plating, 0 and 5% serum groups, control 2-3%) was about 1.3%. For the same compound, the apoptotic endothelial cells ([4]; 18 h after plating, serum deprived, control 5-13%) was 2-3%, the “inhibition of catalytic activity of purified cdc25B PTP” value (cdc25B PTP [5]) was “can inhibit” and the “inhibition of catalytic activity of purified cdc25B PTP” value (cdc25B PTP [6]) was “can inhibit”. The “oxidative damage to DNA” value (C6 cells) was “does not cause oxidative damage to DNA”, the glutathione concentration (rat cardiomyocytes) was “does not change” and the cell death [7] was “does not cause death”. For the same compound, the “inhibition of Ser/Thr phosphatases” value (Ser/Thr phosphatases) was “not”.
